The format of series [1] is binding, E. coli. The following applies: 40:1 mass ratio of PMB/LPS. As for the experimental part:
Electrophoresis Assays. The binding capacities of the telodendrimers with LPS and/or BSA were studied and compared with PMB binding using electrophoresis assay. The electrophoresis was carried out in 1.5% agarose gel (tris-borate-EDTA (TBE) buffer) at constant current of 20 mA for 2 h. The gel was imaged by a Bio-Rad Universal Hood II Imager (Bio-Rad Laboratories, Inc.) under SYBR Green modes or photographed under UV illumination.
Electrophoresis assays. The binding capacities of the telodendrimers with LPS and/or bovine serum albumin (BSA) were studied and compared with PMB binding using electrophoresis assay. The electrophoresis was carried out in 1.5% agarose gel (Tris-borate-EDTA (TBE) buffer) at constant current of 20 mA for 2 h. The gel was imaged by a Bio-Rad Universal Hood II Imager (Bio-Rad Laboratories, Inc.) under SYBR Green modes or photographed under UV illumination.

Series [2] can be described thus: Fluorescent polarization assay of FITC-LPS complexation. The series is classed as binding. The settings on record: FITC-LPS 10 μg/mL in PBS. On the procedure: Fluorescent polarization assays. The fluorescence polarization (FP) was measured on the Multi-Mode Microplate Reader (Synergy™ 2, Biotek, VT) equipped with dichroic mirror (510 nm) and polarizing filter. The measurements were carried out on black flat bottom 96-well plates (Nunclon™ Surface, Roskilde, Denmark). The FP of LPS-FITC was record at excitation and emission filter of 485/20 nm and 528/20 nm, respectively. The experiments were performed in triplicate.

With Polymyxin B [PMB], the “stability of LPS complex in electrophoresis” value in series [1] is “unstable and dissociated”. Moreover, the “fluorescent polarization of FITC-LPS” value in series [2] is listed as “only slightly increased”.
